Measured values: patent EP4782437A1, “HETEROARYL COMPOUND, AND PREPARATION METHOD THEREFOR AND USE THEREOF IN MEDICINE” (Jiangsu Hengrui Pharmaceuticals Co., Ltd., priority 2023, dated 2025)
Read-outs that look alike come from different tables or passages of the source.

Key:
[1] = molecular target: T1, BTK recombinant human protein (Homo sapiens, UniProt Q06187); assay: Inhibitory activity against BTK (HTRF KinEASE-TK kit); type: biochemical
T1 construct: purchased Thermo PV3363
Procedure: Test example 1: Inhibitory activity of compounds of the present disclosure against BTK • I. Experimental materials and instruments • 1. BTK recombinant human protein (Thermo, PV3363) • 2. HTRF KinEASE-TK kit (Cisbio, 62TK0PEC) • 3. 1 M MgCl2 (Thermo, AM9530G) • 4. 1 M MnCl2 (Sigma, M1787-100ML) • 5. Adenosine 5'-triphosphate (ATP) (New England Biolabs, P0756L) • 6. DTT 2M (Sangon Biotech, B645939) • 7. Ultrapure water (Invitrogen, 10977-015) • 8. OptiPlate-384, white opaque 384-well microplate (PerkinElmer, 6007290) • 9. 96-well round-bottom plate (Corning, 3788) • 10. Biochemical incubator (Shanghai Boxun Medical & Biological Instruments Co., Ltd., BSP-100) • 11. 15-mL centrifuge tube (Corning) • 12. Benchtop high-speed centrifuge (Changsha Yingtai Instrument Co., Ltd., TD4N) • 13. Multifunctional microplate reader (PerkinElmer, EnVision) • 14. Bravo liquid handling platform (Agilent Technologies, SGC120TH34702) • II. Experimental procedure
The HTRF KinEASE-TK kit is designed to detect changes in BTK enzyme activity based on two technologies, i.e., fluorescence resonance energy transfer and time-resolved fluorescence. The kit is operated in two stages: 1) enzyme reaction stage: the enzyme reaction is initiated by adding ATP, where the enzyme phosphorylates the substrate, and the compounds are then added to competitively bind to BTK against ATP, thereby inhibiting substrate phosphorylation; and 2) detection stage: after the enzyme reaction is complete, a detection reagent is added to terminate the reaction. Different groups on the phosphorylated substrate bind to the energy donor and energy acceptor, respectively, bringing the two into close proximity. During the instrumental readout, the energy donor is excited by an external light source, which enables resonance energy transfer to the proximal energy acceptor. The acceptor, in turn, becomes excited and emits light at a specific wavelength. Thus, changes in enzyme activity can be detected by measuring the signal values, and the inhibition rate of the compounds against the target enzyme can be calculated, thereby evaluating the inhibitory effect of the compounds on BTK enzyme activity.
Preparation of enzyme reaction buffer: 5× Kinase Buffer was diluted 5-fold with ultrapure water, and then the stock solutions of MgCl2, MnCl2 and DTT were added. The final composition of the buffer was as follows: 1× Kinase Buffer, 10 mM MgCl2, 1 mM MnCl2, and 1 mM DTT.
(§1) Preparation of 5 × BTK working solution: The BTK (5.17 µM) stock solution was removed from -20°C storage. Given that the BTK concentration in the enzyme reaction system was 2 nM and the concentration of the 5× working solution was 10 nM, the BTK stock solution was diluted 517-fold with the enzyme reaction buffer according to the volume required for the experiment. The diluted solution was then added to the 384-well plate at 2 µL per well. The plate was placed in a plate spinner and centrifuged at 2000 rpm for 1 minute to bring the liquid to the bottom of the wells.
as §1, with “[…]. Given” for “Preparation of 5 × BTK working solution: The BTK (5.17 µM) stock solution was removed from -20°C storage. Given”, “the SEB” for “the BTK”, “was 50” for “was 2”, “was 250” for “was 10”, “diluted 10-fold” for “diluted 517-fold”
The test compounds dissolved in 100% DMSO at 20 mM were diluted with 100% DMSO to a concentration of 200 µM, which represents the 200× concentration of the highest compound concentration point in the reaction system. The compounds at this concentration were then subjected to 10-point 3-fold serial dilution with 100% DMSO. The positive control wells and negative control wells were set with 100% DMSO. […]

[2] = test system: B cell activation in human whole blood; assay: Inhibition of B cell activation in human whole blood (CD69 expression, flow cytometry); type: cell-based; conditions: anti-human IgD 30 µg/ml + IL-4 5 ng/ml, 18 hours, CD69-positive CD19-positive B cells, read-out: IC50 values of inhibitory activity against B cell activation in human whole blood
Description: Test example 2: Inhibitory activity of compounds of the present disclosure against B cell activation in human whole blood • I. Experimental materials and instruments • 1. Human whole blood (internal recruitment) • 2. Goat F(ab')2 anti-human IgD-UNLB (SouthernBiotech, 2032-01) • 3. DPBS (1x) (Gibco, 14190-144) • 4. Recombinant human IL-4 (Peprotech, 200-04) • 5. Brilliant Violet 421™ anti-human CD19 antibody (Biolegend, 302234) • 6. APC anti-human CD69 antibody (Biolegend, 310910) • 7. APC mouse IgG1, κ isotype control antibody (Biolegend, 400120) • 8. eBioscience™ 10X RBC lysis buffer (multi-species) (Thermo, 004300-54) • 9. NEST 96-well deep-well plate (Wuxi NEST Biotechnology Co., Ltd., 503501) • 10. 96-well round-bottom plate (Corning, 3788) • 11. 96-well flat-bottom plate (Corning, 3599) • 12. Attune™ NxT acoustic focusing cytometer (ThermoFisher Scientific, 4.2.0) • 13. Cell incubator (Thermo, Forma steri-cycle i160) • II. Experimental procedure
B cells express the B cell receptor (BCR) complex on their surface. When B cells in human whole blood are induced to activate, they can trigger the downstream signalling pathways of the receptor and express the activation marker CD69. The expression of CD69 in activated B cells was detected by flow cytometry, and the IC50 of the compounds were calculated to evaluate the effects of the compounds on BCR activation.
The test compounds dissolved in 100% DMSO at 20 mM were diluted with 100% DMSO to a concentration of 1 mM, which represents the 200× concentration of the highest compound concentration point in the reaction system. The compounds at this concentration were then subjected to 8-point 4-fold serial dilution with 100% DMSO. The positive control wells were set with 100% DMSO, whereas the negative control wells were set with Remiburtinib at a final concentration of 5 µM. The serially diluted compounds and 100% DMSO were further diluted 10-fold in PBS to achieve the 20× concentration, followed by thorough mixing.
After thorough mixing, the whole blood sample was transferred to a loading reservoir and then dispensed into a 96-well flat-bottom plate at 80 µl per well. The compound dilution was dispensed at 5 µl per well. The 11th column of each row was designated as the negative control well, with 5 µl of 100 µM positive control drug added to each well. After thorough mixing for 5 min, the plate was incubated in a 37°C incubator for 30 min. Human IgD antibody was diluted 1.67-fold with PBS to a concentration of 300 µg/mL, and 10 µl of the diluted solution was added to each well of the culture plate (final concentration: 30 µg/ml). Human IL-4 (stock solution at 50 µg/ml) was diluted 500-fold with PBS to a concentration of 100 ng/mL, and 5 µl of the diluted solution was added to each well of the culture plate (final concentration: 5 ng/ml). After thorough mixing for 5 min, the plate was cultured in a 37°C incubator with 5% CO2 for 18 hours.
Flow cytometry detection: CD69-APC, CD19-BV421 and CD4-APC antibodies, and the isotype control antibodies for CD69-APC were removed from 4°C storage. Each antibody was added at 1 µl per well. After thorough mixing for 5 min, the plate was incubated for 30 min at 4°C (refrigerator) in the dark for staining. The 10X RBC lysis buffer was diluted in water to prepare 1X RBC lysis buffer. Aliquots of 1 ml of the lysis buffer were dispensed into each well of a 96-well deep-well plate in advance. The stained samples were transferred into the deep-well plate containing the lysis buffer for erythrocyte lysis. After completing the transfer of an entire plate, the plate was incubated in the dark for 15-20 min. Upon completion of lysis, the plate was centrifuged at 2000 rpm for 4 min. Each well was washed with 1 ml of PBS. Subsequently, the cells were resuspended in 200 µl of PBS, transferred to a 96-well plate, and washed twice more using the same procedure. The samples were resuspended in 200 µl of PBS per well and then subjected to flow cytometry detection. […]

[3] = 2 nM BTK, 10 µM ATP, 0.5 hours preincubation at 25°C; read-out: IC50 values of inhibitory activity against BTK
[4] = read-out: IC50 values of inhibitory activity against BTK; 2 nM BTK, 10 µM ATP, 0.5 hours preincubation at 25°C

T1 sequence (Q06187 whole entry): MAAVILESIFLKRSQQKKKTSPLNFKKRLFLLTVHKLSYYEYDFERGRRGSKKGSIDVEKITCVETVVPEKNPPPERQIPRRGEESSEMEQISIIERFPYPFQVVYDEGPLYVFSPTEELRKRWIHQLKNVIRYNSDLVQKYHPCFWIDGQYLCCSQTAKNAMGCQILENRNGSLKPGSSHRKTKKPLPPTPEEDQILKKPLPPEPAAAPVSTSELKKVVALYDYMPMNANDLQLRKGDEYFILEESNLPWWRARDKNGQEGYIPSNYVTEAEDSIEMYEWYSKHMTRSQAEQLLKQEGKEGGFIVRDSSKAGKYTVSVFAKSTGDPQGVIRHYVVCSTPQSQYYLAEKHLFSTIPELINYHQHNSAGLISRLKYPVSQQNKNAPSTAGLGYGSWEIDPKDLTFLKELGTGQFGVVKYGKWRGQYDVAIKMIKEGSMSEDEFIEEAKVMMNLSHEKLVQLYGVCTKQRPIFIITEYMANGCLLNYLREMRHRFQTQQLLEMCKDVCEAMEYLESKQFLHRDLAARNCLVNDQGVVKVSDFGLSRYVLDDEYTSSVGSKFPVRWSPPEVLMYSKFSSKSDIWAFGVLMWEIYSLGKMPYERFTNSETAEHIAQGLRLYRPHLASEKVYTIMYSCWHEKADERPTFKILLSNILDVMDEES

| Structure (SMILES) | IC50 [1, 3] | IC50 [2] | IC50 [1, 4] |
| --- | --- | --- | --- |
| C=CC(=O)N(C)CCOc1c(N)ncnc1-c1cc(F)cc(NC(=O)c2ccc3c(c2F)OC(C)(C)C3)c1C [Example 4, N-(3-(6-amino-5-(2-(N-methacrylamido)ethoxy)pyrimidin-4-yl)-5-fluoro-2-methylphenyl)-7-fluoro-2,2-dimethyl-2,3-dihydrobenzofuran-6-carboxamide] |  | 10 to 100 nM | 5.1 nM |
| C=CC(=O)N(C)CCOc1c(N)ncnc1-c1cc(F)cc(NC(=O)c2sc3c(c2F)CC(C)(C)C3)c1C [Example 6, N-(3-(6-amino-5-(2-(N-methacrylamido)ethoxy)pyrimidin-4-yl)-5-fluoro-2-methylphenyl)-3-fluoro-5,5-dimethyl-5,6-dihydro-4H-cyclopenta[b]thiophene-2-carboxamide] |  |  | 6.3 nM |
| C=CC(=O)N(C)CCOc1c(N)ncnc1-c1cc(F)cc(NC(=O)c2cc3c(cc2F)C2(CC3)CC2)c1CO [Example 11, N-(3-(6-amino-5-(2-(N-methacrylamido)ethoxy)pyrimidin-4-yl)-5-fluoro-2-(hydroxymethyl)phenyl)-6'-fluoro-2',3'-dihydrospiro[cyclopropane-1,1'-indene]-5'-carboxamide] |  | 10 to 100 nM | 4.2 nM |
| [2H]C([2H])([2H])N(CCOc1c(N)ncnc1-c1cc(F)cc(NC(=O)c2cc3c(cc2F)C2(CC2)CO3)c1C)C(=O)C=C [Example 17, N-(3-(6-amino-5-(2-(N-(methyl-d3)acrylamido)ethoxy)pyrimidin-4-yl)-5-fluoro-2-methylphenyl)-5-fluoro-2H-spiro[benzofuran-3,1'-cyclopropane]-6-carboxamide] | 5.74 nM | 10 to 100 nM |  |
| C=CC(=O)N(C)CCOc1c(N)ncnc1-c1cc(F)cc(NC(=O)c2sc3c(c2F)C2(CC3)CC2)c1C [Example 26-2, N-(3-(6-amino-5-(2-(N-methacrylamido)ethoxy)pyrimidin-4-yl)-5-fluoro-2-methylphenyl)-3-fluoro-5,6-dihydrospiro[cyclopenta[b]thiophene-4,1'-cyclopropane]-2-carboxamide] |  |  | 6.15 nM |
| C=CC(=O)N1C[C@H](OC)C[C@H]1COc1c(N)ncnc1-c1cc(F)cc(NC(=O)c2ccc3c(c2F)OCC3(C)C)c1C [Example 33, N-(3-(5-(((2S,4R)-1-acryloyl-4-methoxypyrrolidin-2-yl)methoxy)-6-aminopyrimidin-4-yl)-5-fluoro-2-methylphenyl)-7-fluoro-3,3-dimethyl-2,3-dihydrobenzofuran-6-carboxamide] | 1.25 nM |  |  |

The next lines start with results.

| IC50 [1, 3] | IC50 [2] | Structure (SMILES) | IC50 [1, 4] |
| --- | --- | --- | --- |
| 6.09 nM | 10 to 100 nM | C=CC(=O)N(C)CCOc1c(N)ncnc1-c1cc(F)cc(NC(=O)c2cc3c(cc2F)C2(CC3)CC2)c1C [Example 1, N-(3-(6-amino-5-(2-(N-methacrylamido)ethoxy)pyrimidin-4-yl)-5-fluoro-2-methylphenyl)-6'-fluoro-2',3'-dihydrospiro[cyclopropane-1,1'-indene]-5'-carboxamide] |  |
|  | 10 to 100 nM | C=CC(=O)N(C)CCOc1c(N)ncnc1-c1cc(F)cc(NC(=O)c2ccc(C3(C)CC3)cc2F)c1C [Example 2, N-(3-(6-amino-5-(2-(N-methacrylamido)ethoxy)pyrimidin-4-yl)-5-fluoro-2-methylphenyl)-2-fluoro-4-(1-methylcyclopropyl)benzamide] |  |
| 6.9 nM | 10 to 100 nM | C=CC(=O)N(C)CCOc1c(N)ncnc1-c1cc(F)cc(NC(=O)c2ccc3c(c2F)OCC32CC2)c1C [Example 5, N-(3-(6-amino-5-(2-(N-methacrylamido)ethoxy)pyrimidin-4-yl)-5-fluoro-2-methylphenyl)-7-fluoro-2H-spiro[benzofuran-3,1'-cyclopropane]-6-carboxamide] |  |
| 4 nM | 10 to 100 nM | C=CC(=O)N(C)CCOc1c(N)ncnc1-c1cc(F)cc(NC(=O)c2cc3c(cc2F)C(C)(C)CC3)c1C [Example 12, N-(3-(6-amino-5-(2-(N-methacrylamido)ethoxy)pyrimidin-4-yl)-5-fluoro-2-methylphenyl)-6-fluoro-1,1-dimethyl-2,3-dihydro-1H-indene-5-carboxamide] |  |
| 3.78 nM | 10 to 100 nM | [2H]C([2H])([2H])N(CCOc1c(N)ncnc1-c1cc(F)cc(NC(=O)c2ccc3c(c2F)OCC32CC2)c1C)C(=O)C=C [Example 18, N-(3-(6-amino-5-(2-(N-(methyl-d3)acrylamido)ethoxy)pyrimidin-4-yl)-5-fluoro-2-methylphenyl)-7-fluoro-2H-spiro[benzofuran-3,1'-cyclopropane]-6-carboxamide] |  |
|  | 10 to 100 nM | C=CC(=O)N(C)CCOc1c(N)ncnc1-c1cc(F)cc(NC(=O)c2ccc3c(c2F)OC2(CC2)C3)c1C [Example 20] |  |
